Tests used:
[1] = ABTS cation radical scavenging; conditions: vitamin C equivalent antioxidant capacity
Experimental: (§1) To further elucidate how halogenation affects other properties of the flavonoids studied, their 2,2′-azino-bis-(3-ethylbenzothiazoline-6-sulfonic acid) cation (ABTS) and 1,1-diphenyl-2-picrylhydrazyl (DPPH) radical scavenging, the Folin–Ciocalteu reagent (FCR) reducing, the ferric-reducing antioxidant power (FRAP), and the anti-lipoperoxidation activities were evaluated by in vitro methods (Supplementary Information Tables S1 and S2).
(§2) The antiradical activity was evaluated by the ability to scavenge ABTS and DPPH radicals. Reducing capacity was assessed by the ability to reduce the Folin–Ciocalteu reagent (FCR) and ferric ions (FRAP). The ability to inhibit lipid peroxidation of pooled male rat microsomal liver membranes induced by tert-butyl hydroperoxide was also evaluated and the results were expressed as IC50 values.

[2] = tested on: human dermal fibroblasts (HDF); assay: Cytotoxicity (resazurin assay, 72 h); assay type: cell-based; conditions: Fibroblast
Experimental: (§3) The cytotoxicity of flavonoids and their halogenated derivatives was determined as their ability to decrease the viability of human dermal fibroblasts (HDF) and doxorubicin-resistant human ovarian carcinomas (HOC/DOX). Both cell lines were cultivated in Dulbecco’s Modified Eagle’s Medium supplemented with fetal bovine serum (FBS, 10% v/v) and 1 × antibiotic antimycotic solution and incubated at 37 °C in the atmosphere of 5% CO2. The experiment was performed according to a previously published method. Briefly, 1 × 10^5 cells/mL were seeded into a 96-well plate (100 µL/well). After 24 h, flavonoids and their derivatives were administered at the concentration range of 31.25–500 µM. After 72 h, the viability was determined by resazurin assay (0.03 mg/mL of resazurin in PBS), where the fluorescence was measured after 2 h of incubation by the SpectraMax i3x microplate reader at a wavelength of 560/590 nm (excitation/emission). The concentration inhibiting half of the population (IC50) was determined using nonlinear regression in GraphPad Prism software. The selectivity index was calculated as the ratio between the IC50 for HDF (control, non-cancerous cells) and the IC50 for HOC/DOX (cancer cells).

[3] = tested on: doxorubicin-resistant human ovarian carcinoma (HOC/DOX); assay: Cytotoxicity (resazurin assay, 72 h); assay type: cell-based; conditions: for IC50: Homo sapiens, 72 h, resazurin assay; for SI (selectivity index): ratio IC50 for HDF / IC50 for HOC/DOX
Experimental: as §3

[4] = tested on: Vibrio campbellii BAA 1119 (AI-2); assay: Viability of the quorum-sensing reporter culture (resazurin assay), AI-2 strain; assay type: cell-based; conditions: BAA1119, V. campbellii BAA 1119, resazurin assay, read-out: IC50 (concentration that halved the viability)
Source text: (§4) Commercially available strains of Vibrio campbellii were used to evaluate the ability of flavonoids and their derivatives to inhibit bacterial quorum sensing. V. campbellii uses two types of autoinducing molecules for its communication—N-acyl-homoserine lactones (Autoinducer I, AI-1, strain BAA 1118) and furanosyl borate diester (Autoinducer II, AI-2, strain BAA 1119). AI-1-based communication is mainly used by Gram-negative bacteria, while AI-2-based communication is found in both Gram-negative and Gram-positive bacteria. The mutant strains of V. campbellii BA1118 and BA1119 respond only to AI-1 or AI-2, respectively, and the response to the respective AI concentration is measured as luminescence. The higher the AI concentration, the higher the luminescence signal. The ability to inhibit the communication was expressed as the selectivity index (SI), calculated as the ratio between the concentration that halved the viability (IC50) and the concentration that halved the communication (EC50) of the respective V. campbellii strains. […] The antimicrobial activity of quorum-sensing inhibitors is undesirable because it creates a selection pressure and can lead to the development of resistance.
(§5) The inhibition of bacterial extracellular communication was measured using Vibrio campbellii strains BAA-1118 and BAA-1119. The experiment was performed according to the methods of Szemerédi et al.. Briefly, 5 × 10^5 CFU/mL (colony-forming units per milliliter) were seeded in an Autoinducer Bioassay medium (NaCl 17.5 g/L, MgSO4 12.3 g/L, Casamino acids 2 g/L, 10 mL of 1 M potassium phosphate pH 7.0, 10 mL of 0.1 M L-arginine, and 10 mL of glycerol in 970 mL of deionized water) in a 96-well plate. Immediately, the tested compounds were added at the final concentration of 0.2–200 µM and luminescence was recorded for 16 h by a SpectraMax i3x microplate reader set at 30 °C, an integration time of 10,000 ms, and shaking for 60 s before measurement. […] The selectivity index was calculated as the […]. The EC50 and IC50 were calculated using GraphPad Prism software version 5.00 for Windows with a nonlinear regression curve fit.

[5] = tested on: Vibrio campbellii BAA 1118 (AI-1); assay: Viability of the quorum-sensing reporter culture (resazurin assay), AI-1 strain; assay type: cell-based; conditions: BAA1118, V. campbellii BAA 1118, resazurin assay, read-out: IC50 (concentration that halved the viability)
Source text: as §4, §5

[6] = Ferric reducing antioxidant power (FRAP); conditions: Fe2+ equivalents
Experimental: as §1, §2

SMILES	ABTS [CEAC] [1] [CEAC]	IC50 [2] [µM]	IC50 [3] [µM]	SI (selectivity index) [3]	IC50 [4] [µM]	IC50 [5] [µM]	FRAP [Fe2+eq] [6] [Fe2+eq]
O=C1c2c(O)cc(O)cc2OC(c2ccc(O)c(O)c2)C1O (centres unmarked) [compound 1, taxifolin, reference compound]	1.08 ± 0.02	93.8 ± 3.7	183	0.51	80 ± 1.7	71 ± 3	1.45 ± 0.07
O=c1c(O)c(-c2ccc(O)c(O)c2)oc2cc(O)cc(O)c12 [compound 2, quercetin, reference compound]	2.87 ± 0.23	54.8 ± 2.7	182	0.30	10.6 ± 0.5	24.5 ± 0.8	2.84 ± 0.02
COc1cc(C2Oc3cc(-c4oc5cc(O)cc(O)c5c(=O)c4O)ccc3OC2CO)ccc1O (centres unmarked) [compound 4, 2,3-dehydrosilybin AB, reference compound]	1.46 ± 0.08	–	23.5 ± 1.5	0.71	25.3 ± 1	163 ± 3.8	0.72 ± 0.03
COc1cc([C@@H]2Oc3c(O)cc(-c4oc5cc(O)cc(O)c5c(=O)c4O)cc3[C@H]2CO)ccc1O [compound 6, 2,3-dehydrosilychristin A, reference compound]	2.10	44.2 ± 2.1	75.7 ± 8.6	0.58	11 ± 0.4	43 ± 1.5	1.16
O=C1c2c(cc(O)c(Br)c2O)O[C@H](c2ccc(O)c(O)c2)[C@H]1O [compound 7, 6-Bromotaxifolin]	0.97 ± 0.03	122	347	0.35	19.7 ± 1	59 ± 0.1	1.33 ± 0.03
O=C1c2c(O)c(Br)c(O)c(Br)c2O[C@H](c2ccc(O)c(O)c2)[C@H]1O [compound 8, 6,8-dibromotaxifolin]	1.04 ± 0.05	158	233	0.68	109.3 ± 0.8	55.5 ± 1	2.20 ± 0.03
O=c1c(O)c(-c2ccc(O)c(O)c2)oc2c(Br)c(O)cc(O)c12 [compound 9, 8-bromoquercetin]	2.92 ± 0.28	132	171	0.77	1.1 ± 0.1	27.8 ± 0.5	2.44 ± 0.06
O=c1c(O)c(-c2ccc(O)c(O)c2)oc2c(Br)c(O)c(Br)c(O)c12 [compound 10, 6,8-dibromoquercetin]	2.63 ± 0.19	55 ± 1.9	54.2 ± 0.3	1.02	3.5 ± 0.1	13.8 ± 0.5	3.31 ± 0.14
COc1cc([C@H]2Oc3cc([C@H]4Oc5cc(O)c(Br)c(O)c5C(=O)[C@@H]4O)ccc3O[C@@H]2CO)ccc1O [compound 11, 6-Bromosilybin A]	0.60 ± 0.04	95.6 ± 3	186	0.51	51.5 ± 0.6	51.7 ± 0.7	0.072 ± 0.002
COc1cc([C@H]2Oc3cc([C@H]4Oc5c(Br)c(O)c(Br)c(O)c5C(=O)[C@@H]4O)ccc3O[C@@H]2CO)ccc1O [compound 12, 6,8-dibromosilybin A]	0.30 ± 0.04	102	304	0.34	80.5 ± 4.8	23.5 ± 1	0.084 ± 0.004
COc1cc([C@@H]2Oc3cc([C@H]4Oc5cc(O)c(Br)c(O)c5C(=O)[C@@H]4O)ccc3O[C@H]2CO)ccc1O [compound 13, 6-Bromosilybin B]	0.75 ± 0.02	76.4 ± 1.1	162	0.47	52.7 ± 0.6	16.1 ± 0.1	0.063 ± 0.001
COc1cc([C@@H]2Oc3cc([C@H]4Oc5c(Br)c(O)c(Br)c(O)c5C(=O)[C@@H]4O)ccc3O[C@H]2CO)ccc1O [compound 14, 6,8-dibromosilybin B]	0.35 ± 0.04	128	231	0.55	60.2 ± 3.4	16.6 ± 0.8	0.081 ± 0.004
COc1cc([C@@H]2Oc3c(O)cc(-c4oc5c(Br)c(O)cc(O)c5c(=O)c4O)cc3[C@H]2CO)ccc1O [compound 18, 8-Bromo-2,3-dehydrosilychristin A]	1.41	66.7 ± 5.6	209	0.32	23 ± 0.2	80.1 ± 1.7	0.90
COc1cc([C@H]2Oc3cc([C@H]4Oc5c(Br)c(O)c(Br)c(O)c5C(=O)[C@@H]4O)ccc3O[C@@H]2CO)cc(Br)c1O [compound 21, 6,8,21-tribromosilybin A]	0.12 ± 0.02	75 ± 2.4	201	0.37	> 200	> 200	0.079 ± 0.002
COc1cc([C@@H]2Oc3cc([C@H]4Oc5c(Br)c(O)c(Br)c(O)c5C(=O)[C@@H]4O)ccc3O[C@H]2CO)cc(Br)c1O [compound 22, 6,8,21-tribromosilybin B]	0.17 ± 0.01	85.8 ± 1.1	183	0.47	34.4 ± 1.8	7.3 ± 0.1	0.062 ± 0.002

Reference: article PMC9738062, “Selectively Halogenated Flavonolignans—Preparation and Antibacterial Activity” (International Journal of Molecular Sciences, 2022)
